Reference: patent US11596692B1 (Incyte Corporation, priority 2018, dated 2023)
Where two headings read alike, the source gives them in different places.

Test system: IRF3
Assay: IRF3 activation assay in THP-1 Dual cells
Type: cell-based
Conditions: Homo sapiens, read-out: THP1 IRF3 EC50
Procedure: THP-1 Dual Cells (Invivogen) were maintained in RPMI1640 medium with addition of 10% FBS, 100 μg/ml zeocin, 10 μg/ml blasticidin. Cells were added in a 96-well flat bottom assay plate at 100,000 per well in 100 μL complete RPMI medium. Test compounds were prepared by serial dilution in complete RPMI medium and 100 μL test compounds were transferred to each corresponding well. The assay plate was incubated at 37° C., 5% CO2 for 24 hours. After the overnight incubation, 20 μL of the culture supernatants were collected, followed by addition of 180 μL of QUANTI-Blue (Invivogen) to assess IRF3 activity. The amount of IRF3 activation was assessed by reading the absorbance at 620-655 nm with a microplate reader 2 hours later. The culture supernatant from the untreated THP-1 cells was used as the negative control. EC50 determination was performed by fitting the curve of percent control activity versus the log of the compound concentration using the GraphPad Prism 6.0 software.

Row | EC50 (THP-1, Table 4A) [nM] | EC50 (THP-1, Table 4B) [nM] | EC50 (THP-1, Table 4C) [nM] | SMILES
1 | ≤ 100 | < 200 | ≤ 50 | CCn1nc(C)cc1C(=O)Nc1nc2cc(C(N)=O)cc(C)c2n1C/C=C/Cn1c2ccc(C(N)=O)cc2c2cc(F)c(-c3cc(C)nn3CC)nc21 [Example S24, (E)-9-(4-(5-carbamoyl-2-(1-ethyl-3-methyl-1H-pyrazole-5-carboxamido)-7-methyl-1H-benzo[d]imidazol-1-yl)but-2-en-1-yl)-2-(1-ethyl-3-methyl-1H-pyrazol-5-yl)-3-fluoro-9H-pyrido[2,3-b]indole-6-carboxamide]
2 |  |  | ≤ 50 | CCn1nc(C)cc1C(=O)Nc1nc2cc(C(N)=O)cc(OCCOC(=O)c3cc(C)nn3CC)c2n1C/C=C/Cn1c2nc(-c3cc(C)nn3CC)ncc2c2cc(C(N)=O)cc(OCCCOC)c21 [Example S40, (E)-2-((5-carbamoyl-1-(4-(6-carbamoyl-2-(1-ethyl-3-methyl-1H-pyrazol-5-yl)-8-(3-methoxypropoxy)-9H-pyrimido[4,5-b]indol-9-yl)but-2-en-1-yl)-2-(1-ethyl-3-methyl-1H-pyrazole-5-carboxamido)-1H-benzo[d]imidazol-7-yl)oxy)ethyl 1-ethyl-3-methyl-1H-pyrazole-5-carboxylate]
3 | 100 to 500 | < 1000 | 200 to 500 | CCn1nc(C)cc1C(=O)Nc1nc2cc(C(N)=O)cc(C)c2n1C/C=C/Cn1c2ccc(C(N)=O)cc2c2cc(C#N)c(-c3cc(C)nn3CC)nc21 [Example S25, (E)-9-(4-(5-carbamoyl-2-(1-ethyl-3-methyl-1H-pyrazole-5-carboxamido)-7-methyl-1H-benzo[d]imidazol-1-yl)but-2-en-1-yl)-3-cyano-2-(1-ethyl-3-methyl-1H-pyrazol-5-yl)-9H-pyrido[2,3-b]indole-6-carboxamide]
4 | ≤ 100 |  |  | CCn1nc(C)cc1-c1ncc2c3cc(C(N)=O)cc(OCCCO)c3n(C/C=C/Cn3c4nc(-c5cc(C)nn5CC)ncc4c4cc(C(N)=O)cc(OCCCO)c43)c2n1 [Example S65, (E)-9,9′-(but-2-ene-1,4-diyl)bis(2-(1-ethyl-3-methyl-1H-pyrazol-5-yl)-8-(3-hydroxypropoxy)-9H-pyrimido[4,5-b]indole-6-carboxamide)]
5 |  |  | ≤ 50 | CCn1nc(C)cc1C(=O)Nc1nc2cc(C(N)=O)cc(OCCCNS(=O)(=O)CCCC(=O)O)c2n1C/C=C/Cn1c2nc(-c3cc(C)nn3CC)ncc2c2cc(C(N)=O)cc(OCCCOC)c21 [Example S50, (E)-4-(N-(3-((5-carbamoyl-1-(4-(6-carbamoyl-2-(1-ethyl-3-methyl-1H-pyrazol-5-yl)-8-(3-methoxypropoxy)-9H-pyrimido[4,5-b]indol-9-yl)but-2-en-1-yl)-2-(1-ethyl-3-methyl-1H-pyrazole-5-carboxamido)-1H-benzo[d]imidazol-7-yl)oxy)propyl)sulfamoyl)butanoic acid]
6 | 100 to 500 | < 1000 | 200 to 500 | CCn1nc(C)cc1C(=O)Nc1nc2cc(C(N)=O)cc(C)c2n1C/C=C/Cn1c2ccc(C(N)=O)cc2c2cnc(-c3ccnn3CC)nc21 [Example S7, (E)-9-(4-(5-carbamoyl-2-(1-ethyl-3-methyl-1H-pyrazole-5-carboxamido)-7-methyl-1H-benzo[d]imidazol-1-yl)but-2-enyl)-2-(1-ethyl-1H-pyrazol-5-yl)-9H-pyrimido[4,5-b]indole-6-carboxamide]
7 | ≤ 100 |  |  | CCn1nc(C)cc1C(=O)Nc1nc2cc(C(N)=O)c3ccoc3c2n1C/C=C/Cn1c2nc(-c3cc(C)nn3CC)ncc2c2cc(C(N)=O)cc(OCCCOC)c21 [Example S68, (E)-1-(4-(6-carbamoyl-2-(1-ethyl-3-methyl-1H-pyrazol-5-yl)-8-(3-methoxypropoxy)-9H-pyrimido[4,5-b]indol-9-yl)but-2-en-1-yl)-2-(1-ethyl-3-methyl-1H-pyrazole-5-carboxamido)-1H-benzofuro[6,7-d]imidazole-5-carboxamide]
8 |  |  | 50 to 200 | CCn1nc(C)cc1C(=O)Nc1nc2cc(C(N)=O)cc(OC)c2n1C/C=C/Cn1c2nc(-c3cc(C)nn3CC)ncc2c2cc(C(N)=O)cc(OCCC3CCN(CCCC(=O)O)CC3)c21 [Example S60, (E)-4-(4-(2-(6-carbamoyl-9-(4-(5-carbamoyl-2-(1-ethyl-3-methyl-1H-pyrazole-5-carboxamido)-7-methoxy-1H-benzo[d]imidazol-1-yl)but-2-enyl)-2-(1-ethyl-3-methyl-1H-pyrazol-5-yl)-9H-pyrimido[4,5-b]indol-8-yloxy)ethyl)piperidin-1-yl)butanoic acid]
9 |  |  | ≤ 50 | CCn1nc(C)cc1C(=O)Nc1nc2cc(C(N)=O)cc(OCCCO)c2n1C/C=C/Cn1c2nc(-c3cc(C)nn3CC)ncc2c2cc(C(N)=O)cc(OCCCNC(=O)OCCC(=O)O)c21 [Example S54, (E)-3-(3-(6-carbamoyl-9-(4-(5-carbamoyl-2-(1-ethyl-3-methyl-1H-pyrazole-5-carboxamido)-7-(3-hydroxypropoxy)-1H-benzo[d]imidazol-1-yl)but-2-enyl)-2-(1-ethyl-3-methyl-1H-pyrazol-5-yl)-9H-pyrimido[4,5-b]indol-8-yloxy)propylcarbamoyloxy)propanoic acid]
10 | 100 to 500 | < 1000 |  | CCn1nc(C)cc1C(=O)Nc1nc2cc(C(N)=O)cc(C)c2n1C/C=C/Cn1c2ccc(C(N)=O)cc2c2cnc(-c3cc(C)nn3C)nc21 [Example S3, (E)-9-(4-(5-carbamoyl-2-(1-ethyl-3-methyl-1H-pyrazole-5-carboxamido)-7-methyl-1H-benzo[d]imidazol-1-yl)but-2-enyl)-2-(1,3-dimethyl-1H-pyrazol-5-yl)-9H-pyrimido[4,5-b]indole-6-carboxamide]
11 | ≤ 100 | < 200 | ≤ 50 | CCn1nc(C)cc1C(=O)Nc1nc2cc(C(N)=O)cc(OCCCN3CCOCC3)c2n1C/C=C/Cn1c2nc(-c3cc(C)nn3CC)ncc2c2cc(C(N)=O)cc(OCCCOC)c21 [Example S27, (E)-9-(4-(5-carbamoyl-2-(1-ethyl-3-methyl-1H-pyrazole-5-carboxamido)-7-(3-morpholinopropoxy)-1H-benzo [d]imidazol-1-yl)but-2-en-1-yl)-2-(1-ethyl-3-methyl-1H-pyrazol-5-yl)-8-(3-methoxypropoxy)-9H-pyrimido[4,5-b]indole-6-carboxamide]
12 |  |  | ≤ 50 | CCn1nc(C)cc1C(=O)Nc1nc2cc(C(N)=O)cc(OCCCC#N)c2n1C/C=C/Cn1c2nc(-c3cc(C)nn3CC)ncc2c2cc(C(N)=O)cc(OCCCOC)c21 [Example S34, (E)-9-(4-(5-carbamoyl-7-(3-cyanopropoxy)-2-(1-ethyl-3-methyl-1H-pyrazole-5-carboxamido)-1H-benzo[d]imidazol-1-yl)but-2-en-1-yl)-2-(1-ethyl-3-methyl-1H-pyrazol-5-yl)-8-(3-methoxypropoxy)-9H-pyrimido[4,5-b]indole-6-carboxamide]
13 |  |  | ≤ 50 | CCn1nc(C)cc1C(=O)Nc1nc2cc(C(N)=O)cc(OC)c2n1C/C=C/Cn1c2nc(-c3cc(C)nn3CC)ncc2c2cc(C(N)=O)cc(OCCCNC(=O)CCCC(=O)O)c21 [Example S51, (E)-5-(3-(6-carbamoyl-9-(4-(5-carbamoyl-2-(1-ethyl-3-methyl-1H-pyrazole-5-carboxamido)-7-methoxy-1H-benzo[d]imidazol-1-yl)but-2-enyl)-2-(1-ethyl-3-methyl-1H-pyrazol-5-yl)-9H-pyrimido[4,5-b]indol-8-yloxy)propylamino)-5-oxopentanoic acid]
